The NIST ThermoML archive (doi:10.1021/je8006937)

Settings: Liquid, Pendant drop shape

CCCCn1cc[n+](C)c1.CCOCCOCCOS(=O)(=O)[O-] [1-butyl-3-methylimidazolium 2-(2-ethoxyethoxy)ethylsulfate] + O=C=O
Settings	interfacial tension [mN/m]
281.3 K, 1960 kPa	23
281.3 K, 3680 kPa	10.8
281.31 K, 100 kPa	34.5
281.31 K, 3150 kPa	15.1
281.32 K, 1110 kPa	28.2
281.48 K, 4300 kPa	4.6
281.58 K, 5100 kPa	4.5
281.58 K, 6970 kPa	4.5
281.61 K, 9890 kPa	4
281.61 K, 13700 kPa	3.8
281.63 K, 17000 kPa	3.7
281.63 K, 19930 kPa	3.5
281.69 K, 100 kPa	34.3
281.69 K, 1490 kPa	25.4
281.7 K, 600 kPa	30.6
281.7 K, 2830 kPa	17.3
281.7 K, 4160 kPa	6.5
281.84 K, 4340 kPa	4.9
281.86 K, 12130 kPa	4.4
281.87 K, 5900 kPa	4.7
281.91 K, 18060 kPa	3.7
295.14 K, 100 kPa	34
295.2 K, 100 kPa	34.2
295.3 K, 1030 kPa	29.3
295.39 K, 1980 kPa	25
295.5 K, 3350 kPa	18.8
295.8 K, 3950 kPa	16.3
296.03 K, 4960 kPa	12.4
296.29 K, 6150 kPa	12.8
296.31 K, 6630 kPa	5.8
296.35 K, 8190 kPa	5.6
296.42 K, 10120 kPa	5.2
296.5 K, 14370 kPa	4.8
296.53 K, 17640 kPa	4.5
319.53 K, 100 kPa	33.3
319.57 K, 2130 kPa	27.7
319.58 K, 1030 kPa	30.4
319.58 K, 3610 kPa	23.6
319.59 K, 5010 kPa	19.5
319.6 K, 6190 kPa	16.4
319.63 K, 7090 kPa	14
319.69 K, 8100 kPa	12.3
319.71 K, 9070 kPa	7.7
319.78 K, 10070 kPa	7.9
319.78 K, 11080 kPa	8
319.79 K, 11720 kPa	7.9
319.85 K, 14840 kPa	7.6
319.91 K, 17840 kPa	7.1
319.94 K, 20870 kPa	6.7
